Assay results: patent US20150218516A1, “COMPOSITIONS AND METHODS FOR ENHANCING IMMUNE RESPONSES MEDIATED BY ANTIGEN-PRESENTING CELLS” (The Board of Regents of the University of Nebraska, priority 2007, published 2015)
Non-standard residues stand in square brackets, D forms with d. Residues, ends and D or L forms follow the SMILES beside them.

Experiments:
C5aRs on Human PMNs = biological target: T1, C5aRs on Human PMNs (Homo sapiens, UniProt P21730); experiment: Competition assay with 125I-C5a for C5aR binding on intact human PMNs
T1 construct: endogenous in cells; host or cells: intact human PMNs (polymorphonuclear leukocytes)
T1 sequence (P21730 1-350): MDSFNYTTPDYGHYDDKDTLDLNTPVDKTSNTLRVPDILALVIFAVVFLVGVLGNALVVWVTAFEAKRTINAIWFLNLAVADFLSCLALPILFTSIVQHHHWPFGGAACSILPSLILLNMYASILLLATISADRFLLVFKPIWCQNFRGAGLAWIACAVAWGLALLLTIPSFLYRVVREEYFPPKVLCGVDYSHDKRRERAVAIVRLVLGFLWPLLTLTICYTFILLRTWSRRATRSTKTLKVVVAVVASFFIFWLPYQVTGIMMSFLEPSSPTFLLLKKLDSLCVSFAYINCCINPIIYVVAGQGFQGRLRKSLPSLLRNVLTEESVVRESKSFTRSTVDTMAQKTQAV
Experimental: C5a-like agonistic activity was assessed by the ability of the peptides to induce smooth muscle contraction of human umbilical artery and MPO release from human PMNs according to previously published methods (Sanderson et al., 1994, supra; Sanderson et al., J. Med. Chem. 38, 3669, 1995; Finch et al., J. Med. Chem. 40, 877, 1997). Full concentration-response curves were generated for individual peptides and natural C5a in each assay and the EC50 values (the concentration of peptide producing 50% of the maximal response to each peptide) were calculated. pD2 transforms [−log EC50 (M)] were calculated for each concentration-response curve and reported as the mean±SE. Peptide binding affinity to the C5aR was evaluated on intact human PMNs by a competition assay using ^125I-C5a according to previously described methods (Sanderson et al., 1995, supra; Finch et al., 1997, supra). Statistical analysis of the values obtained from pharmacologic assays was performed using one-way analysis of variance (ANOVA).

human PMNs = experiment: MPO release from human PMNs; format: cell-based; settings: for pD2 ± SE: −log EC50 (M), mean ± SE, n=3
Experimental: (§1) Statistical analysis of the values obtained from pharmacologic assays was performed using one-way analysis of variance (ANOVA).

human umbilical artery = experiment: Smooth muscle contraction of human umbilical artery; format: cell-based; settings: for EC50: concentration resulting in 50% maximum contraction; for pD2 ± SE: −log EC50 (M), mean ± SE, n=3
Experimental: as §1

SKRC-52 = settings: cord blood T lymphocytes, dendritic cells exposed to the peptide
Experimental: (§2) An exemplary in vitro cytotoxicity assay comprises the following steps. Antigen presenting cells, such as dendritic cells, were obtained from bone marrow or blood. Dendritic cells were preferentially differentiated in culture through the addition of IL-4, GM-CSF, and TNFα for 7-10 days. Dendritic cells were then pulsed with peptides for 18 hours. MNCs were also isolated from spleens or blood (e.g., cord or peripheral) and cultured in IL-2 and GM-CSF for 7-10 days for enhanced lymphocyte proliferation. The pulsed dendritic cells were then co-cultured with the lymphocyte-enriched MNCs at a 1:10 ratio for 4 days. Lymphocyte-enriched MNC effector cells were then co-cultured with tumor target cells labeled with the bioactive fluorescent dye Calcein AM for 4 hours. Lysed cells were detected by photometrically measuring the released fluorescent dye.
(§3) Certain renal cell carcinomas express the tumor antigen G250. […] The fusion peptide was administered to APCs which were subsequently presented for 4 days to a lymphocyte-enriched population from cord blood as described hereinabove in Example 6.

SKRC-1 = settings: low G250 expression; cord blood T lymphocytes
Experimental: as §2, §3

[1] = tested on: A-375 cell line (melanoma); format: cell-based, human
Experimental: The tumor peptide antigen tyrosinase is expressed on more than 70% of human melanoma cells that are human leukocyte antigen (HLA) A2 positive. […] The dendritic cells, presumably expressing the tyrosinase epitope, were then cultured with a lymphocyte-enriched cell population which was then cultured with melanoma cells to determine melanoma cell killing using a cytotoxic T lymphocyte assay.

LNCaP cells = tested on: LNCaP cells
Experimental: as §2
(§4) Certain prostate carcinomas express prostate-specific membrane antigen (PSMA). […] The fusion peptides were administered to APCs which were subsequently presented to a lymphocyte-enriched population from cord blood as described hereinabove in Example 6. After antigen presentation by pulsed DC in co-culture, CTLs were tested for their ability to lyse three different target cell monolayers in an in vitro cytotoxicity assay. […] The fusion peptides were also administered to APCs which were subsequently presented to a adult peripheral blood-derived CTLs. In vitro cytotoxicity against the human prostate cancer cell line LNCaP was then assessed using the bioactive fluorescent dye calcein AM (FIG. 11D).

BEAS-2B epithelial cells = tested on: BEAS-2B epithelial cells
Experimental: as §2, §4

κR(33-52) peptide = experiment: Peptide-specific ELISA of serum and protein A-purified antibody from immunized rabbits; format: in vivo
Experimental: Rabbits were immunized s.c. with 500 μg of […]aR (SEQ ID NO: 10) construct in complete Freund's adjuvant (GIBCO, Grand Island, N.Y.) on day 0 followed by booster injections on days 30 and 60 in incomplete Freund's adjuvant. Serum was collected starting 75 days after the initial immunization.
The presence of anti-peptide antibody was determined by using a peptide specific ELISA utilizing the free κR(33-52) peptide as previously described (Morgan et al. (1993) J. Immunol., 151: 377). Anti-κR(33-52) and normal rabbit γ-globulin (RGG) were purified by protein A Sepharose chromatography (Sigma) (Morgan et al. (1993) J. Immunol., 151: 377) prior to use.

CC[C@H](C)[C@H](NC(=O)[C@H](CCCNC(=N)N)NC(=O)[C@H](CCCNC(=N)N)NC(=O)[C@H](CCCNC(=N)N)NC(=O)[C@@H](C)NC(=O)[C@H](CC(C)C)NC(=O)[C@@H]1CCCN1C(=O)[C@H](CCSC)NC(=O)[C@@H]1CCCN1C(=O)[C@H](CCCCN)NC(=O)[C@H](Cc1ccccc1)NC(=O)[C@H](CO)NC(=O)[C@@H](N)Cc1ccc(O)cc1)C(=O)N1CCC[C@H]1C(=O)N[C@@H](CCC(N)=O)C(=O)N[C@@H](CO)C(=O)N[C@@H](CC(C)C)C(=O)N[C@@H](CC(=O)O)C(=O)N[C@@H](CO)C(=O)N[C@@H](Cc1c[nH]c2ccccc12)C(=O)N[C@@H](Cc1c[nH]c2ccccc12)C(=O)N[C@H](C(=O)N[C@@H](CO)C(=O)N[C@@H](CC(C)C)C(=O)O)[C@@H](C)O
binding to the C5aR (in words) (C5aRs on Human PMNs): bound poorly
MPO release from PMNs (in words) (human PMNs): inactive
pD2 ± SE (human PMNs): >3
potency in umbilical artery contraction (in words) (human umbilical artery): significantly less potent
EC50 (human umbilical artery): 39.4 µM
pD2 ± SE (human umbilical artery): 4.41 ± 0.06

CSCC[C@H](NC(=O)[C@@H]1CCCN1C(=O)[C@H](CCCCN)NC(=O)[C@H](Cc1ccccc1)NC(=O)[C@H](CO)NC(=O)[C@H](Cc1ccc(O)cc1)NC(=O)[C@H](CCCNC(=N)N)NC(=O)[C@H](CCCNC(=N)N)NC(=O)[C@@H](NC(=O)[C@H](CCCNC(=N)N)NC(=O)[C@H](C)NC(=O)[C@H](Cc1ccccc1)NC(=O)[C@H](C)NC(=O)[C@@H](NC(=O)[C@H](CO)NC(=O)[C@H](CC(C)C)NC(=O)[C@@H](N)Cc1c[nH]cn1)[C@@H](C)O)C(C)C)C(=O)N1CCC[C@H]1C(=O)N[C@@H](CC(C)C)C(=O)N[C@H](C)C(=O)N[C@@H](CCCNC(=N)N)C(=O)O (H-HLSTAFARVRRYSFKPMPL[dA]R-OH)
cytotoxicity against SKRC-52 (in words) (SKRC-52): significant cytotoxicity
cytotoxicity against SKRC-1 (in words) (SKRC-1): exhibited cytotoxicity

CSCC[C@H](NC(=O)[C@@H]1CCCN1C(=O)[C@H](CCCCN)NC(=O)[C@H](Cc1ccccc1)NC(=O)[C@H](CO)NC(=O)[C@H](Cc1ccc(O)cc1)NC(=O)[C@@H](NC(=O)[C@H](CCCNC(=N)N)NC(=O)[C@H](C)NC(=O)[C@H](Cc1ccccc1)NC(=O)[C@H](C)NC(=O)[C@@H](NC(=O)[C@H](CO)NC(=O)[C@H](CC(C)C)NC(=O)[C@@H](N)Cc1c[nH]cn1)[C@@H](C)O)C(C)C)C(=O)N1CCC[C@H]1C(=O)N[C@@H](CC(C)C)C(=O)N[C@H](C)C(=O)N[C@@H](CCCNC(=N)N)C(=O)O (H-HLSTAFARVYSFKPMPL[dA]R-OH)
cytotoxicity against SKRC-52 (in words) (SKRC-52): significant cytotoxicity
cytotoxicity against SKRC-1 (in words) (SKRC-1): exhibited cytotoxicity

CC[C@H](C)[C@H](N)C(=O)N1CCC[C@H]1C(=O)N[C@@H](CCC(N)=O)C(=O)N[C@@H](CO)C(=O)N[C@@H](CC(C)C)C(=O)N[C@@H](CC(=O)O)C(=O)N[C@@H](CO)C(=O)N[C@@H](Cc1c[nH]c2ccccc12)C(=O)N[C@@H](Cc1c[nH]c2ccccc12)C(=O)N[C@H](C(=O)N[C@@H](CO)C(=O)N[C@@H](CC(C)C)C(=O)N[C@@H](CCCNC(=N)N)C(=O)N[C@@H](CCCNC(=N)N)C(=O)N[C@@H](Cc1ccc(O)cc1)C(=O)N[C@@H](CO)C(=O)N[C@@H](Cc1ccccc1)C(=O)N[C@@H](CCCCN)C(=O)N1CCC[C@H]1C(=O)N[C@@H](CCSC)C(=O)N1CCC[C@H]1C(=O)N[C@@H](CC(C)C)C(=O)N[C@H](C)C(=O)N[C@@H](CCCNC(=N)N)C(=O)NCC(=O)O)[C@@H](C)O (H-IPQSLDSWWTSLRRYSFKPMPL[dA]RG-OH)
binding to the C5aR (in words) (C5aRs on Human PMNs): significantly less affinity
MPO release from PMNs (in words) (human PMNs): unable to induce a full response
EC50 (human PMNs; 50% maximum release of myeloperoxidase): 2.56 µM
pD2 ± SE (human PMNs): 5.59 ± 0.28
potency in umbilical artery contraction (in words) (human umbilical artery): significantly less potent
EC50 (human umbilical artery): 6.78 µM
pD2 ± SE (human umbilical artery): 5.17 ± 0.13

CC(C)C[C@H](NC(=O)[C@@H](N)CC(C)C)C(=O)N[C@@H](Cc1c[nH]cn1)C(=O)N[C@@H](CCC(=O)O)C(=O)N[C@H](C(=O)N[C@@H](CC(=O)O)C(=O)N[C@@H](CO)C(=O)N[C@@H](C)C(=O)N[C@H](C(=O)O)C(C)C)[C@@H](C)O [PSMA p1]
cytotoxicity against A-375 (in words) [1]: not cytotoxic
cytotoxicity against LNCaP (in words) (LNCaP cells): did not exhibit significant cytotoxicity
cytotoxicity against BEAS-2B (in words) (BEAS-2B epithelial cells): not cytotoxic

CC[C@H](C)[C@H](NC(=O)[C@H](CC(=O)O)NC(=O)[C@H](Cc1ccccc1)NC(=O)[C@H](CC(C)C)NC(=O)[C@H](C)N)C(=O)N[C@@H](CCC(=O)O)C(=O)N[C@@H](CO)C(=O)N[C@@H](CCCCN)C(=O)N[C@H](C(=O)O)C(C)C [PSMA p2]
cytotoxicity against A-375 (in words) [1]: not cytotoxic
cytotoxicity against LNCaP (in words) (LNCaP cells): did not exhibit significant cytotoxicity
cytotoxicity against BEAS-2B (in words) (BEAS-2B epithelial cells): not cytotoxic

FPGWAEPDSNGSAGSEDAQLYSFKPMPLaR
antibody concentration at which binding to free κR(33-52) was detectable (κR(33-52) peptide; protein A-purified antibody from immunized rabbits): less than 0.1 ng/ml
ED50 titer (κR(33-52) peptide; protein A-purified antibody, multiple bleedings): 1 to 10 ng/mL
serum titer against free κR(33-52) peptide (κR(33-52) peptide; rabbits, 500 μg s.c. in Freund's adjuvant): approximately 10^5
